The record followed here is patent US20130041005A1, “PHARMACEUTICAL COMPOSITIONS COMPRISING NEUROPILIN INHIBITORS, AND THEIR USE FOR THE PREVENTION AND/OR TREATMENT OF ANGIOGENIC DISORDERS AND CANCERS” (TRAGEX PHARMA, priority 2011, published 2013).

As usually defined, the IC50 is the point on the concentration scale where inhibition reaches its midpoint. What is called inhibition is the change of the read-out against control, counted positive when it falls. Read a low inhibition as a response near the control.

For this assay, the system named is MDA-MB-438. Kind of assay: WST-1 proliferation assay, MDA-MB-438. Conditions: Homo sapiens; for IC50: Breast MDA-MB-438, 72 h, read-out: Anti-proliferative activity IC50 (μM) ± SD; for inhibition at 0.1 µM: MDA-MB-438, 0.1 μM; for inhibition at 0.5 µM: MDA-MB-438, 0.5 μM; for inhibition at 1 µM: MDA-MB-438, 1 μM. The class given is cell-based. An excerpt: Several cancer cell lines were used: breast cancer cells (MDA-MB-231 (ATTCC® Number HTB-26™), MDA-MB-436 (ATTCC® Number HTB-130™), MDA-MB-438, BT-474 (ATTCC® Number HTB-20™)); cervical cancer cells (HeLa (ATTCC® Number CCL-2™)); colon cancer cells (HCT-116 (ATTCC® Number CCL-247™) and HT-29 (ATTCC® Number HTB-38™)); osteosarcoma cells (U2OS (ATTCC® Number HTB-96™)); pancreas cancer cells (MIA PaCa-2 (ATTCC® Number CRL-1420™) and Panc-10.5 (ATTCC® Number CRL-2547™)); prostate cancer cells (PC-3 (ATTCC® Number CRL-1435™) and LNCaP (ATTCC® Number CRL-1740™)); brain cancer cells (U87 glioblastoma (ATTCC® Number HTB-14™) and SH-SYSY neuroblastoma (ATTCC® Number CRL-2266™)).
All the cancer cell lines were maintained in cultured in DMEM GlutaMAX™ (GIBCO Invitrogen, France, cat no 31966047) enhanced with 10% foetal bovine serum (GIBCO Invitrogen, France, cat no 10270-106) and 1% penicillin G/streptomycin (GIBCO Invitrogen, France, cat no 15140-122). Only Panc-10.5 cells were cultivated in RPMI 1640 medium (Gibco) supplemented with 2 mM L-glutamine, 1.5 g/L sodium bicarbonate, 4.5 g/L glucose, 10 mM HEPES, 1 mM sodium pyruvate, 10 Units/ml human insulin, […] (SVF): 15% (75 ml in 500 ml of medium).
Cells were grown as subconfluent monolayer and cultured in 75 cm^2 flasks at 37° C., 5% CO2 in a humidified atmosphere, and medium was changed every two days. Only cells from passages 2-6 were used for the experiments.
After observation of cells under the microscope, old media were removed and the adherent cells washed gently twice with PBS (Phosphate Buffer Saline, —Ca^2+, —Mg^2+, Lonza cat no: 17-512F/12). All cells were detached with 3 ml of trypsin/EDTA (chelator of calcium and magnesium ions) (Lonza), incubated for 5 min at 37° C., and examined using a microscope to ensure that the cells were detached and floating. Then, 3 ml TNS (Trypsin Neutralizing Solution, Lonza, France, cat no CC-5002) or of culture medium were added to inactivate the trypsin, and the cell suspension was transferred in a falcon and centrifuged for 7 min at 1400 rpm. The supernatant was removed and the cell pellet resuspended in […] of culture medium. 50 μl of this solution were transferred in 20 μl of isotonic solution and the cells were counted by count cellular (Beckman Coulter). At day 0, 200 μl of cellular suspension (3.10^3 cells/well for the HUVEC cells, breast cancer cells (MDA-MB-231 1.10^4 cells/well, MDA-MB-436 1.10^4 cells/well, MDA-MB-438 2.10^4 cells/well, BT-474 2.5.10^4 cells/well); cervical cancer cells (HeLa 5.000 cells/well); colon cancer cells (HCT-116 5.10^3 cells/well, HCT-29 1.1.10^4 cells/well); osteosarcoma cells (U2OS 8.10^3 cells/well); pancreas cancer cells (MIA PaCa-2 5.10^3 cells/well, Panc-10.5 1.5.10^4 cells/well); prostate cancer cells (PC-3 4.10^3 cells/well, LNCaP 2.10^4 cells/well); brain cancer cells (U87 5.10^3 cells/well, SH-SYSY 8.10^4 cells/well)) were then plated on 96 well plates and incubated at 37° C. in a humidified atmosphere of 5% CO2 for 24 h.
At day 1, the compounds 1 or 2 of the invention were added at increasing concentrations (0.1-10 μM) in the wells and plates were incubated at 37° C. in a humidified atmosphere of 5% CO2 for 72 h.
The cell proliferation WST-1 assay is a colorimetric assay for the quantification of cell proliferation and viability, based on the enzymatic cleavage of the tetrazolium salt WST-1 added to the culture medium, to a water soluble colored formazan dye, detected by absorbance at 450 nm, by mitochondrial succinate-tetrazolium reductase in viable cells. An augmentation in enzyme activity will then lead to an increase in the amount of formazan dye formed, which directly correlates to the number of metabolically active cells in the culture.
After an incubation period of 72 h, at day 4, were prepared the 19 ml medium with reagent WST-1 1 ml ([…]). The medium was removed from the 96 microplate and 200 μl of solution WST-1/medium were added for each well. […]
In general terms: Tetrazolium dyes change colour on reduction, which living cells bring about.

The structures appear in SMILES notation.

With `Cc1ccc(-c2nc3ccccc3[nH]2)cc1NC(=S)NC(=O)c1ccc2c(c1)OCCO2` [Compound 1, N-[5-(1H-benzimidazol-2-yl)-2-methylphenyl]-N′-(2,3-dihydro-1,4-benzodioxin-6-ylcarbonyl)thiourea], the half-maximal inhibitory concentration (IC50) turned out to be 1 µM, the inhibition at 0.1 µM was determined as 4%, the inhibition at 0.5 µM is 40% and the inhibition at 1 µM is 55%.
In the case of `O=C(NC(=S)Nc1cccc(-c2nc3ccccc3[nH]2)c1)c1ccc2c(c1)OCCO2` [Compound 2, N-[3-(1H-benzimidazol-2-yl)phenyl]-N′-(2,3-dihydro-1,4-benzodioxin-6-ylcarbonyl)thiourea], the IC50 is 0.5 ± 0.03 µM, the inhibition at 0.1 µM is 34%, the inhibition at 0.5 µM came out at 51% and the inhibition at 1 µM is 58%.
